Test results: the supplement of paper PMC7287046

Legend:
Conditions in all cases: exposure time: 72 h
U87 = tested on: U87
Method: (§1)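 Glioma cell lines and primary cultures were treated with single drugs in a nine-step threefold dilution series, about 72 h. Viability was read by CellTiter-Glo and normalised to untreated controls. Absolute IC50 was fitted in GraphPad Prism; values beyond the tested dose range are censored at the block's top or lowest dose.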

T98 = tested on: T98
Method: as §1

AM38 = tested on: AM38
Method: as §1

U251 = tested on: U251
Method: as §1

U118 = tested on: U118
Method: as §1

KNS42 = tested on: KNS42
Method: as §1

CAS-1 = tested on: CAS-1
Method: as §1

SF268 = tested on: SF268
Method: as §1

SNB75 = tested on: SNB75
Method: as §1

SF539 = tested on: SF539
Method: as §1

| Structure (SMILES) | IC50 (absolute, viability) (U87) | IC50 (absolute, viability) (T98) | IC50 (absolute, viability) (AM38) | IC50 (absolute, viability) (U251) | IC50 (absolute, viability) (U118) | IC50 (absolute, viability) (KNS42) | IC50 (absolute, viability) (CAS-1) | IC50 (absolute, viability) (SF268) | IC50 (absolute, viability) (SNB75) | IC50 (absolute, viability) (SF539) |
| --- | --- | --- | --- | --- | --- | --- | --- | --- | --- | --- |
| Cc1cc([C@@H](C)Nc2ccccc2C(=O)O)c2nc(N3CCOCC3)cc(=O)n2c1 [AZD6482] | 6690 nM | 8390 nM | 8350 nM | 5070 nM | 22000 nM | 41400 nM | 3150 nM | 13900 nM | 9910 nM | 4860 nM |
| C[C@@H](Oc1cc(-c2cnn(C3CCNCC3)c2)cnc1N)c1c(Cl)ccc(F)c1Cl [Crizotinib] | 3630 nM | 1880 nM |  | 330 nM | < 22.9 nM | 25000 nM | > 50000 nM | 29.6 nM |  | < 22.9 nM |
| CC(=O)O[C@@]12CO[C@@H]1C[C@H](O)[C@@]1(C)C(=O)[C@H](O)C3=C(C)[C@@H](OC(=O)[C@H](O)[C@@H](NC(=O)OC(C)(C)C)c4ccccc4)C[C@@](O)([C@@H](OC(=O)c4ccccc4)[C@H]21)C3(C)C [Docetaxel] | 2.73 nM | 0.818 nM | 1.28 nM | 0.0604 nM | 10.1 nM | 4.38 nM | 43.7 nM | 2.31 nM | 1.67 nM | 0.628 nM |
| C#Cc1cccc(Nc2ncnc3cc(OCCOC)c(OCCOC)cc23)c1 [Erlotinib] | 11600 nM | 27500 nM | 27800 nM |  | 35500 nM | 27200 nM | > 50000 nM | 38100 nM | 15000 nM | 25000 nM |
| Nc1ccn([C@@H]2O[C@H](CO)[C@@H](O)C2(F)F)c(=O)n1 [Gemcitabine] | 27.9 nM | 450 nM | 145 nM | 149 nM | 320 nM | 859 nM | 206 nM | 210 nM | 148 nM | 182 nM |
| CCOc1nc(NC(=O)Cc2cc(OC)ccc2OC)cc(N)c1C#N [JNK inhibitor VIII] | 12000 nM | 6360 nM | 15800 nM | 48700 nM | 28800 nM | 36500 nM | 20200 nM | 21100 nM | 8380 nM | 7090 nM |
| C=CCc1cccc(/C=N/NC(=O)CN2CCN(Cc3ccccc3)CC2)c1O [PAC-1] | 7180 nM | 1710 nM | 404 nM | 6150 nM | 5440 nM | 17800 nM | > 100000 nM | 2970 nM | 2980 nM | 3060 nM |
| CCC(=O)N1CCN(c2ccc(-n3c(=O)ccc4cnc5ccc(-c6cnc7ccccc7c6)cc5c43)cc2C(F)(F)F)CC1 [Torin1] | 17.4 nM | 25.1 nM | 4.18 nM | 199 nM | 27.4 nM | 434 nM | 28.5 nM | 74.6 nM | 19.1 nM | 28 nM |
